# Assay results published in PubChem BioAssay AID2060888 (Molecular Pharmacology Branch, DTP, NCI, 2025).
# Tested on: 695427-040-R-J1-PDC complex spheroid viability
# Assay: Anticancer human tumor 695427-040-R-J1-PDC patient-derived colon adenocarcinoma cell line growth inhibition [RAS]
# Details: for IC50: curve of first compound; for viability, T/C: stronger effect = lower value
# Procedure, shortened: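 Agents were tested in combination matrices in half-log decrements from a top concentration at or near clinical Cmax (10 microM if undetermined). Targets were multi-cell spheroids of tumour lines plus HUVEC and MSC stromal cells.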
# [1] = second compound 0.000949 µM, first compound 0.0316 µM
# [2] = second compound 0.000949 µM, first compound 0.1 µM
# [3] = second compound 0.000949 µM, first compound 0.316 µM
# [4] = second compound 0.000949 µM, first compound 1 µM
# [5] = second compound 0.003 µM, first compound 0.0316 µM
# [6] = second compound 0.003 µM, first compound 0.1 µM
# [7] = second compound 0.003 µM, first compound 0.316 µM
# [8] = second compound 0.003 µM, first compound 1 µM
# [9] = second compound 0.00949 µM, first compound 0.0316 µM
# [10] = second compound 0.00949 µM, first compound 0.1 µM
# [11] = second compound 0.00949 µM, first compound 0.316 µM
# [12] = second compound 0.00949 µM, first compound 1 µM
# [13] = second compound 0.03 µM, first compound 0.0316 µM
# [14] = second compound 0.03 µM, first compound 0.1 µM
# [15] = second compound 0.03 µM, first compound 0.316 µM
# [16] = second compound 0.03 µM, first compound 1 µM
# [17] = second compound 0.0949 µM, first compound 0.0316 µM
# [18] = second compound 0.0949 µM, first compound 0.1 µM
# [19] = second compound 0.0949 µM, first compound 0.316 µM
# [20] = second compound 0.0949 µM, first compound 1 µM
# [21] = second compound 0.3 µM, first compound 0.0316 µM
# [22] = second compound 0.3 µM, first compound 0.1 µM
# [23] = second compound 0.3 µM, first compound 0.316 µM
# [24] = second compound 0.3 µM, first compound 1 µM
# 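Note: viability read after seven days of drug exposure.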
# 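Throughout, for viability, T/C: 100% = DMSO vehicle control viability.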
compound,measurement,setting,value
CC(Nc1ccc2c(c1)OCCn1cc(N3C(=O)OCC3C(F)F)nc1-2)C(N)=O (centres undefined) + CCn1c(-c2cc(N3CCN(C)CC3)cnc2C(C)OC)c2c3cc(ccc31)-c1csc(n1)CC(NC(=O)C1CC1C)C(=O)N1CCCC(N1)C(=O)OCC(C)(C)C2,IC50,second compound 0.000949 µM,855 nM
same,IC50,second compound 0.003 µM,673 nM
same,IC50,second compound 0.00949 µM,581 nM
same,IC50,second compound 0.03 µM,< 31.6 nM
same,IC50,second compound 0.0949 µM,< 31.6 nM
same,IC50,second compound 0.3 µM,< 31.6 nM
same,"viability, T/C",[1],61.4%
same,"viability, T/C",[2],72.4%
same,"viability, T/C",[3],69.7%
same,"viability, T/C",[4],47.1%
same,"viability, T/C","second compound 0.000949 µM, first compound 3.16 µM",39.1%
same,"viability, T/C","second compound 0.000949 µM, first compound 10 µM",38%
same,"viability, T/C",[5],100%
same,"viability, T/C",[6],70.5%
same,"viability, T/C",[7],59.5%
same,"viability, T/C",[8],41.9%
same,"viability, T/C","second compound 0.003 µM, first compound 3.16 µM",45.6%
same,"viability, T/C","second compound 0.003 µM, first compound 10 µM",41.9%
same,"viability, T/C",[9],86.2%
same,"viability, T/C",[10],66.2%
same,"viability, T/C",[11],54%
same,"viability, T/C",[12],49.8%
same,"viability, T/C","second compound 0.00949 µM, first compound 3.16 µM",32.2%
same,"viability, T/C","second compound 0.00949 µM, first compound 10 µM",25.6%
same,"viability, T/C",[13],45.6%
same,"viability, T/C",[14],48.3%
same,"viability, T/C",[15],32.2%
same,"viability, T/C",[16],27.1%
same,"viability, T/C","second compound 0.03 µM, first compound 3.16 µM",26.6%
same,"viability, T/C","second compound 0.03 µM, first compound 10 µM",22.3%
same,"viability, T/C",[17],35%
same,"viability, T/C",[18],33.3%
same,"viability, T/C",[19],31.4%
same,"viability, T/C",[20],19.1%
same,"viability, T/C","second compound 0.0949 µM, first compound 3.16 µM",21.3%
same,"viability, T/C","second compound 0.0949 µM, first compound 10 µM",14.6%
same,"viability, T/C",[21],36.1%
same,"viability, T/C",[22],22.2%
same,"viability, T/C",[23],24.3%
same,"viability, T/C",[24],17.1%
same,"viability, T/C","second compound 0.3 µM, first compound 3.16 µM",14.9%
same,"viability, T/C","second compound 0.3 µM, first compound 10 µM",13.7%
C=CC(=O)N1CCN(c2nc(OCC3CCCN3C)nc3c(F)c(-c4nc(N)cc(C)c4C(F)(F)F)c(Cl)cc23)C(C)C1 (centres undefined) + CCn1c(-c2cccnc2C(C)OC)c2c3cc(ccc31)N1CCOC(CC(NC(=O)C(C(C)C)N(C)C(=O)C3(F)CCN(C(=O)C#CC(C)(C)N(C)C)CC3)C(=O)N3CCCC(N3)C(=O)OCC(C)(C)C2)C1,IC50,second compound 0.000949 µM,> 1000 nM
same,IC50,second compound 0.003 µM,> 1000 nM
same,IC50,second compound 0.00949 µM,> 1000 nM
same,IC50,second compound 0.03 µM,> 1000 nM
same,IC50,second compound 0.0949 µM,> 1000 nM
same,IC50,second compound 0.3 µM,> 1000 nM
same,"viability, T/C","second compound 0.000949 µM, first compound 0.00316 µM",113%
same,"viability, T/C","second compound 0.000949 µM, first compound 0.01 µM",102%
same,"viability, T/C",[1],76.5%
same,"viability, T/C",[2],75.5%
same,"viability, T/C",[3],95.3%
same,"viability, T/C",[4],93.1%
same,"viability, T/C","second compound 0.003 µM, first compound 0.00316 µM",109%
same,"viability, T/C","second compound 0.003 µM, first compound 0.01 µM",98.4%
same,"viability, T/C",[5],94%
same,"viability, T/C",[6],77%
same,"viability, T/C",[7],99.4%
same,"viability, T/C",[8],106%
same,"viability, T/C","second compound 0.00949 µM, first compound 0.00316 µM",104%
same,"viability, T/C","second compound 0.00949 µM, first compound 0.01 µM",116%
same,"viability, T/C",[9],85.1%
same,"viability, T/C",[10],80%
same,"viability, T/C",[11],105%
same,"viability, T/C",[12],95%
same,"viability, T/C","second compound 0.03 µM, first compound 0.00316 µM",97.1%
same,"viability, T/C","second compound 0.03 µM, first compound 0.01 µM",104%
same,"viability, T/C",[13],85.2%
same,"viability, T/C",[14],75.9%
same,"viability, T/C",[15],100%
same,"viability, T/C",[16],108%
same,"viability, T/C","second compound 0.0949 µM, first compound 0.00316 µM",96.9%
same,"viability, T/C","second compound 0.0949 µM, first compound 0.01 µM",101%
same,"viability, T/C",[17],107%
same,"viability, T/C",[18],84.4%
same,"viability, T/C",[19],102%
same,"viability, T/C",[20],107%
same,"viability, T/C","second compound 0.3 µM, first compound 0.00316 µM",84.2%
same,"viability, T/C","second compound 0.3 µM, first compound 0.01 µM",86.4%
same,"viability, T/C",[21],89.1%
same,"viability, T/C",[22],88.8%
same,"viability, T/C",[23],88.7%
same,"viability, T/C",[24],78%
